This is an account of results in US10280166B2, “2-(1H-indazol-3-yl)-3H-imidazo[4,5-B]pyridine and therapeutic uses thereof” (Samumed, LLC, priority 2014, dated 2019).

Assay [1] has as its system Wnt activity (SW480 colon carcinoma cells stably expressing the Sp5-Luc reporter gene). Put plainly: Sp5-Luc reporter gene screening assay for Wnt activity in SW480 cells. Particulars: Homo sapiens, 42 h incubation, luminescence. In kind it is cell-based. Summed up: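 SW480 cells stably carrying an Sp5 promoter (eight TCF/LEF sites)-luciferase reporter were plated overnight in 10% FCS medium. BrightGlo luminescence was normalised to DMSO wells, and IC50 was obtained by four-parameter fit.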

In assay [2] the test system is primary human fibroblasts derived from IPF patients (LL29 cells). The experiment in a line: Inhibition of fibrosis (αSMA) in TGF-β1 treated primary human fibroblasts from IPF patients. Particulars: Fibroblast, 96 h, TGF-β1 20 ng/mL, 4 days, % αSMA positive cells. In kind it is cell-based. From the text: The above synthesized compounds were screened using primary human fibroblasts (derived from IPF patients) treated with TGF-β1 to determine their ability to inhibit the fibrotic process.
Primary human fibroblasts derived from IPF patients (LL29 cells) [^1Xiaoqiu Liu, et.al., “Fibrotic Lung Fibroblasts Show Blunted Inhibition by cAMP Due to Deficient cAMP Response Element-Binding Protein Phosphorylation”, Journal of Pharmacology and Experimental Therapeutics (2005), 315(2), 678-687; ^2Watts, K. L., et.al., “RhoA signaling modulates cyclin D1 expression in human lung fibroblasts; implications for idiopathic pulmonary fibrosis”, Respiratory Research (2006), 7(1), 88] were obtained from American Type Culture Collection (ATCC) and expanded in F12 medium supplemented with 15% Fetal Bovine Serum and Penicillin/Streptomycin.
Each compound was dissolved in DMSO as a 10 mM stock and used to prepare compound source plates. Serial dilution (1:2, 11-point dose-response curves from 10 μM to 1.87 nM) and compound transfer was performed using the ECHO 550 (Labcyte, Sunnyvale, Calif.) into 384-well clear bottom assay plates (Greiner Bio-One) with appropriate DMSO backfill for a final DMSO concentration of 0.1%. LL29 cells were plated at 1,500 cells/well in 80 μl/well F12 medium supplemented with 1% Fetal Bovine Serum. One hour after addition of the cells, TGF-β1 (Peprotech; 20 ng/mL) was added to the plates to induce fibrosis (ref. 1 and 2 above). Wells treated with TGF-β1 and containing DMSO were used as controls. Cells were incubated at 37° C. and 5% CO2 for 4 days. Following incubation for 4 days, SYTOX green nucleic acid stain (Life Technologies [Thermo Fisher Scientific]) was added to the wells at a final concentration of 1 uM and incubated at room temperature for 30 min. Cells were then fixed using 4% formaldehyde (Electron Microscopy Sciences), washed 3 times with PBS followed by blocking and permeabilization using 3% Bovine Serum Albumin (BSA; Sigma) and 0.3% Triton X-100 (Sigma) in PBS. Cells were then stained with antibody specific to α-smooth muscle actin (αSMA; Abcam) (ref. 1 and 2 above) in 3% Bovine Serum Albumin (BSA; Sigma) and 0.3% Triton X-100 (Sigma) in PBS, and incubated overnight at 4° C. Cells were then washed 3 times with PBS, followed by incubation with Alexa Flor-647 conjugated secondary antibody (Life Technologies [Thermo Fisher Scientific]) and DAPI at room temperature for 1 hour. Cells were then washed 3 times with PBS and plates were sealed for imaging. αSMA staining was imaged by excitation at 630 nm and emission at 665 nm and quantified using the Compartmental Analysis program on the CellInsight CX5 (Thermo Scientific). Dead or apoptotic cells were excluded from analysis based on positive SYTOX green staining. % of total cells positive for αSMA were counted in each well and normalized to the average of 11 wells treated with TGF-β1 on the same plate using Dotmatics' Studies Software. The normalized averages (fold change over untreated) of 3 replicate wells for each compound concentration were used to create dose-responses curves and EC50 values were calculated using non-linear regression curve fit in the Dotmatics' Studies Software. The EC50 values are reported.

In assay [1], `CN(C)Cc1cncc(-c2ccc3[nH]nc(-c4nc5c(-c6cccs6)ccnc5[nH]4)c3c2)c1` [Compound 325, N,N-Dimethyl-1-(5-(3-(7-(thiophen-2-yl)-3H-imidazo[4,5-b]pyridin-2-yl)-1H-indazol-5-yl)pyridin-3-yl)methanamine] showed a 50% inhibitory concentration (IC50) of 932 nM. In assay [2], this molecule registered an EC50 of 0.04 nM.
For `CC(C)(C)CC(=O)Nc1cncc(-c2ccc3[nH]nc(-c4nc5cccnc5[nH]4)c3c2)c1` [Compound 250, N-(5-(3-(3H-Imidazo[4,5-b]pyridin-2-yl)-1H-indazol-5-yl)pyridin-3-yl)-3,3-dimethylbutanamide], in that order: 124 nM and 2.6 nM.
For `Fc1ccc(-c2ccnc3[nH]c(-c4n[nH]c5ccc(-c6cncc(CN7CCCC7)c6)cc45)nc23)cc1` [Compound 40, 7-(4-Fluorophenyl)-2-(5-(5-(pyrrolidin-1-ylmethyl)pyridin-3-yl)-1H-indazol-3-yl)-3H-imidazo[4,5-b]pyridine], in assay [1], 4030 nM corresponded to half-maximal inhibition (IC50). Besides, a half-maximal response in assay [2] (EC50) required 0.009 nM.
For `O=C(Nc1cncc(-c2ccc3[nH]nc(-c4nc5c(-c6ccc(F)cc6)ccnc5[nH]4)c3c2)c1)C1CCC1` [Compound 46, N-(5-(3-(7-(4-Fluorophenyl)-3H-imidazo[4,5-b]pyridin-2-yl)-1H-indazol-5-yl)pyridin-3-yl)cyclobutanecarboxamide], in that order: 2 nM and 0.08 nM.
In assay [1], `Cc1ccncc1-c1ccc2[nH]nc(-c3nc4c(-c5cc(F)cc(CNS(C)(=O)=O)c5)ccnc4[nH]3)c2c1` [Compound 421, N-(3-fluoro-5-(2-(5-(4-Methylpyridin-3-yl)-1H-indazol-3-yl)-3H-imidazo[4,5-b]pyridin-7-yl)benzyl)methanesulfonamide] had a half-inhibitory concentration (IC50) of 6.1 nM. The same molecule came in with an EC50 in assay [2] of 0.045 nM.
For `CC(C)Nc1cncc(-c2ccc3[nH]nc(-c4nc5c(-c6cccnc6)ccnc5[nH]4)c3c2)c1` [Compound 90, N-isopropyl-5-(3-(7-(pyridin-3-yl)-3H-imidazo[4,5-b]pyridin-2-yl)-1H-indazol-5-yl)pyridin-3-amine], in that order: 12 nM and 0.078 nM.
For `Cc1ccc(-c2ccnc3[nH]c(-c4n[nH]c5ccc(-c6cncc(NC(=O)C7CCCC7)c6)cc45)nc23)s1` [Compound 385, N-(5-(3-(7-(5-Methylthiophen-2-yl)-3H-imidazo[4,5-b]pyridin-2-yl)-1H-indazol-5-yl)pyridin-3-yl)cyclopentanecarboxamide], in that order: 19.2 nM and 0.084 nM.
For `O=C(Nc1cncc(-c2ccc3[nH]nc(-c4nc5c(-c6ccccn6)ccnc5[nH]4)c3c2)c1)c1ccccc1` [Compound 141, N-(5-(3-(7-(Pyridin-2-yl)-3H-imidazo[4,5-b]pyridin-2-yl)-1H-indazol-5-yl)pyridin-3-yl)benzamide], in that order: 13.7 nM and 9.99 nM.
Consider `COc1cncc(-c2ccc3[nH]nc(-c4nc5c(-c6cccc(F)c6)ccnc5[nH]4)c3c2)c1` [Compound 1884, 7-(3-Fluorophenyl)-2-(5-(5-methoxypyridin-3-yl)-1H-indazol-3-yl)-3H-imidazo[4,5-b]pyridine], for which, in assay [1], the IC50 was greater than 10000 nM. Further, in assay [2], the 50% effective concentration (EC50) is 9.99 nM.
`O=C(CC1CCNCC1)Nc1cncc(-c2ccc3[nH]nc(-c4nc5c(-c6cccc(F)c6)ccnc5[nH]4)c3c2)c1` [Compound 1881, N-(5-(3-(7-(3-Fluorophenyl)-3H-imidazo[4,5-b]pyridin-2-yl)-1H-indazol-5-yl)pyridin-3-yl)-2-(piperidin-4-yl)acetamide] gave an IC50 in assay [1] of 65 nM. Besides, a half-maximal effect in assay [2] (EC50) was put at 0.071 nM.
For `Cc1ccncc1-c1ccc2[nH]nc(-c3nc4c(-c5ccsc5)ccnc4[nH]3)c2c1` [Compound 265, 2-(5-(4-Methylpyridin-3-yl)-1H-indazol-3-yl)-7-(thiophen-3-yl)-3H-imidazo[4,5-b]pyridine], in that order: 9.4 nM and 0.131 nM.
In the same order, the values of `Fc1cccc(-c2ccnc3[nH]c(-c4n[nH]c5ccc(-c6ccccn6)cc45)nc23)c1` [Compound 1889, 7-(3-Fluorophenyl)-2-(5-(pyridin-2-yl)-1H-indazol-3-yl)-3H-imidazo[4,5-b]pyridine] are greater than 1000 nM and 0.018 nM.
In the case of `O=C(Nc1cncc(-c2ccc3[nH]nc(-c4nc5c(-c6ccsc6)ccnc5[nH]4)c3c2)c1)C1CC1` [Compound 279, N-(5-(3-(7-(Thiophen-3-yl)-3H-imidazo[4,5-b]pyridin-2-yl)-1H-indazol-5-yl)pyridin-3-yl)cyclopropanecarboxamide], half-maximal inhibition in assay [1] (IC50) required 5.2 nM. The response in assay [2] was half-maximal at 0.306 nM (EC50).
For `O=C(Nc1cncc(-c2ccc3[nH]nc(-c4nc5c(-c6cccs6)ccnc5[nH]4)c3c2)c1)C1CC1` [Compound 331, N-(5-(3-(7-(Thiophen-2-yl)-3H-imidazo[4,5-b]pyridin-2-yl)-1H-indazol-5-yl)pyridin-3-yl)cyclopropanecarboxamide], in that order: 34.7 nM and 0.155 nM.
For the molecule `CCC(=O)Nc1cncc(-c2ccc3[nH]nc(-c4nc5c(-c6cccs6)ccnc5[nH]4)c3c2)c1` [Compound 313, N-(5-(3-(7-(Thiophen-2-yl)-3H-imidazo[4,5-b]pyridin-2-yl)-1H-indazol-5-yl)pyridin-3-yl)propionamide], the concentration for half-maximal inhibition (IC50) in assay [1] was 2 nM. Further, the response in assay [2] was half-maximal at 0.027 nM (EC50).
In the same order, the values of `O=C(Nc1cncc(-c2ccc3[nH]nc(-c4nc5c(-c6ccsc6)ccnc5[nH]4)c3c2)c1)C1CCCC1` [Compound 281, N-(5-(3-(7-(Thiophen-3-yl)-3H-imidazo[4,5-b]pyridin-2-yl)-1H-indazol-5-yl)pyridin-3-yl)cyclopentanecarboxamide] are 9.8 nM and 0.359 nM.
Molecule `Fc1cccc(-c2ccnc3[nH]c(-c4n[nH]c5ccc(C6=CCNCC6)cc45)nc23)c1` [Compound 1874, 7-(3-Fluorophenyl)-2-(5-(1,2,3,6-tetrahydropyridin-4-yl)-1H-indazol-3-yl)-3H-imidazo[4,5-b]pyridine] returned a half-inhibitory concentration (IC50) in assay [1] greater than 1000 nM. Further, the EC50 in assay [2] was found to be 0.317 nM.
`CN(C)CCNc1cc(F)cc(-c2ccnc3[nH]c(-c4n[nH]c5ccc(-c6cncc(CNCC7CCCC7)c6)cc45)nc23)c1` [Compound 466, N^1-(3-(2-(5-(5-(((Cyclopentylmethyl)amino)methyl)pyridin-3-yl)-1H-indazol-3-yl)-3H-imidazo[4,5-b]pyridin-7-yl)-5-fluorophenyl)-N^2,N^2-dimethylethane-1,2-diamine] registered an IC50 in assay [1] of 442 nM. Besides, the EC50 in assay [2] was 1.11 nM.
In the same order, the values of `CC(C)C(=O)Nc1cncc(-c2ccc3[nH]nc(-c4nc5c(-c6ccsc6)ccnc5[nH]4)c3c2)c1` [Compound 269, N-(5-(3-(7-(Thiophen-3-yl)-3H-imidazo[4,5-b]pyridin-2-yl)-1H-indazol-5-yl)pyridin-3-yl)isobutyramide] are 5.1 nM and 9.99 nM.
For `CCNCc1cncc(-c2ccc3[nH]nc(-c4nc5c(-c6ccoc6)ccnc5[nH]4)c3c2)c1` [Compound 292, N-((5-(3-(7-(Furan-3-yl)-3H-imidazo[4,5-b]pyridin-2-yl)-1H-indazol-5-yl)pyridin-3-yl)methyl)ethanamine], in that order: 47.7 nM and 0.009 nM.
As for `CN(C)Cc1cncc(-c2ccc3[nH]nc(-c4nc5c(-c6cccc(F)c6)ccnc5[nH]4)c3c2)c1` [Compound 13, 1-(5-(3-(7-(3 -Fluorophenyl)-3H-imidazo[4,5-b]pyridin-2-yl)-1H-indazol-5-yl)pyridin-3-yl)-N,N-dimethylmethanamine], half-maximal inhibition in assay [1] (IC50) was put at 116 nM. Moreover, in assay [2], the EC50 is 1.15 nM.
